Target: T1, Farnesyl-protein transferase (Ftase) from bovine brain (Bos taurus, UniProt P29702+P49355)
T1 construct: Farnesyl-protein transferase (Ftase) from bovine brain was chromatographed on DEAE-Sephacel; from tissue; host or cells: bovine brain, partially purified (DEAE-Sephacel, N-octyl agarose, mono Q HPLC)
Test: In vitro inhibition of ras farnesyl transferase
Assay type: biochemical
Settings: Ras-CVLS 3.5 μM, 0.25 μM [3H]FPP, partially purified bovine brain enzyme; read-out: IC50 (concentration of compound which gives 50% inhibition of FTase under the described assay conditions)
Method: In vitro inhibition of ras farnesyl transferase
Farnesyl-protein transferase (Ftase) from bovine brain was chromatographed on DEAE-Sephacel (Pharmacia, 0-0.8 M NaC1 gradient elution), N-octyl agarose (Sigma, 0-0.6 M Nacl gradient elution), and a mono Q HPLC column (Pharmacia, 0-0.3 M NaC1 gradient). Ras-CVLS at 3.5 μM, 0.25 μM [3H]FPP, and the indicated compounds were incubated with this partially purified enzyme preparation. The Ftase data presented below is a measurement of the ability of the test compound to inhibit RAS farnesylation in vitro.
*(IC50 is the concentration of compound which gives 50% inhibition o
FTase under the described assay conditions)

IC50 [nM] | SMILES
25 | CC[C@H](C)[C@H](NC[C@@H](N)CS)C(=O)NCc1cccc(Cl)c1Cl [N-[2(R)-Amino-3-mercaptopropyl]-L-isoleucine-2,3-dichlorobenzylamide]
63 | CC[C@H](C)[C@H](NC[C@@H](N)CS)C(=O)NCCc1cccc(Cl)c1 [N-[2(R)-Amino-3-mercaptopropyl]-L-isoleucine-3-chlorophenethylamide]
35 | CC[C@H](C)[C@H](NC[C@@H](N)CS)C(=O)Nc1cccc(C)c1C [N-[2(R)-amino-3-mercaptopropyl]-L-isoleucine-2,3-dimethylphenylamide]
63 | CC[C@H](C)[C@H](NC[C@@H](N)CS)C(=O)Nc1ccccc1 [N-[2(R)-amino-3-mercaptopropyl]-L-isoleucine-anilide]

Tested on: Ras farnesylation
Test: not given
Settings: cited from earlier work

SMILES | Inhibition of Ras farnesylation in vivo
CC[C@H](C)C(=O)O[C@H]1CCC=C2C=C[C@H](C)[C@H](CC[C@@H]3C[C@@H](O)CC(=O)O3)[C@H]21 [compactin] | Inhibition of Ras farnesylation in vivo has been demonstrated
CC[C@H](C)C(=O)O[C@H]1C[C@@H](C)C=C2C=C[C@H](C)[C@H](CC[C@@H]3C[C@@H](O)CC(=O)O3)[C@H]21 [lovastatin] | Inhibition of Ras farnesylation in vivo has been demonstrated
